Assay results reported in the OPERA property sets (Mansouri et al. 2018).

Conditions: not given

Row | SMILES | boiling point [°C] | melting point [°C] | log10 Henry constant (atm·m³/mol) | log10 vapour pressure (mmHg) | ready biodegradability | log10 Koc (L/kg) | log10 biodegradation half-life (days) | log10 Koa
1 | CC1(O)CCCC1 | 136 | 36 |  |  |  |  |  | 
2 | CN(C)C1CCCCC1 | 160 |  | -4.63 |  |  |  |  | 
3 | O=[N+]([O-])c1ccc(-c2ccc([N+](=O)[O-])cc2)cc1 |  |  |  | -7.56 |  |  |  | 
4 | CCC(Cl)(Cl)Cl | 108 |  |  | 1.5 |  |  |  | 
5 | CC(C)OC(=O)OOC(C)(C)C |  |  |  |  | not readily biodegradable |  |  | 
6 | c1ccc2c(c1)CCc1ccccc1N2C1CN2CCC1CC2 (stereo not given) |  | 150 |  |  |  |  |  | 
7 | CCOC(=O)c1nc(C(Cl)(Cl)Cl)n(-c2ccc(Cl)cc2Cl)n1 |  | 110 |  | -8.18 |  |  |  | 
8 | CCOC(=O)c1cc([N+](=O)[O-])cc([N+](=O)[O-])c1 |  | 94 |  |  |  | 2.74 |  | 
9 | COP(=O)(OC)OC=C(Cl)Cl | 234 | -60 |  | -1.8 | readily biodegradable | 1.67 |  | 
10 | CC(C)[C@H](C)CC[C@@H](C)[C@H]1CC[C@H]2[C@@H]3CC=C4C[C@@H](O)CC[C@]4(C)[C@H]3CC[C@]12C |  | 158 |  |  |  |  |  | 
11 | CCCCCNCCCCC | 202 |  |  | -0.815 | readily biodegradable |  |  | 
12 | CCC(=O)Nc1cc(N(CCOC(C)=O)CCOC(C)=O)ccc1N=Nc1ccc([N+](=O)[O-])cc1Cl |  |  |  |  | not readily biodegradable |  |  | 
13 | CSc1ccc(C(=O)O)cc1 |  | 194 |  |  |  |  |  | 
14 | CC(C)(OCc1ccc(-c2ccc(Cl)cc2)cc1)C(=O)O |  | 154 |  |  |  |  |  | 
15 | O=C(OC[C@H]1O[C@@H](Oc2ccccc2CO)[C@H](O)[C@@H](O)[C@@H]1O)c1ccccc1 |  | 180 |  |  |  |  |  | 
16 | CCOC(CO)OCC | 167 |  |  |  |  |  |  | 
17 | Nc1ccc(Br)cc1[N+](=O)[O-] |  | 112 |  |  |  |  |  | 
18 | O=[N+]([O-])c1ccccc1C(F)(F)F | 217 | 32.5 |  |  |  |  |  | 
19 | O=C1OC(=O)c2c(F)c(F)c(F)c(F)c21 |  | 95 |  |  |  |  |  | 
20 | CNC(C)CC1CCCCC1 (stereo not given) | 205 |  |  |  |  |  |  | 
21 | C[C@@]12CCC[C@H]1[C@@H]1CC[C@H]3CCCC[C@]3(C)[C@H]1CC2 |  | 64.6 |  |  |  |  |  | 

Row | SMILES | boiling point [°C] | melting point [°C] | log10 Henry constant (atm·m³/mol) | log10 vapour pressure (mmHg) | ready biodegradability | log10 Koc (L/kg) | log10 biodegradation half-life (days) | log10 Koa
22 | CCCCCCCCCCCCCCCC(=O)OC |  | 30 |  | -4.33 |  |  |  | 
23 | NC(=O)c1ccccc1[N+](=O)[O-] | 317 | 177 |  |  |  | 1.45 |  | 
24 | CC(Cc1ccccc1)NC(C#N)c1ccccc1 (stereo not given) |  | 86 |  |  |  |  |  | 
25 | CCCCCCCCCCCC(=O)CCCCCCCCCCC |  | 70.2 |  |  |  |  |  | 
26 | Nc1ccc(Nc2ccccc2)cc1 | 354 | 66 |  | -4.92 |  |  |  | 
27 | CN(C)C(CSC(N)=O)CSC(N)=O.Cl |  | 180 |  |  |  |  |  | 
28 | CC(CO)(CO)C(=O)O |  | 190 |  |  |  |  |  | 
29 | O=C(Cl)c1ccccc1C(=O)Cl | 281 | 15.5 |  | -1.79 |  |  |  | 
30 | CCCCOC(=O)C(C)CC (stereo not given) | 179 |  |  |  |  |  |  | 
31 | Cc1cc(Cl)cc(Cl)c1Cl | 230 | 45.5 |  |  |  |  |  | 
32 | FC(F)(F)C(F)(F)C(F)(F)C(F)(F)OC(F)(F)C(F)(F)C(F)(F)C(F)(F)F | 102 | -100 |  |  |  |  |  | 
33 | O=C(C1CCCCC1)N1CC(=O)N2CCc3ccccc3C2C1 (stereo not given) |  | 136 |  |  |  |  |  | 
34 | Cc1c(NC(=O)C(C)N(C)C)c(=O)n(-c2ccccc2)n1C (stereo not given) |  | 181 |  |  |  |  |  | 
35 | CCCCCCCCCCCCCCCCCCCCCCCCCC(=O)O |  | 88.5 |  |  |  |  |  | 
36 | CN(C)C(=O)Nc1ccc(Oc2ccc(Cl)cc2)cc1 |  | 151 |  | -8.41 | not readily biodegradable | 3.55 |  | 
37 | CCCC(C)CCC | 118 | -121 |  | 1.31 |  |  | 0.602 | 
38 | COC(=O)c1ccc2ccccc2c1 | 290 | 77 |  |  |  |  |  | 
39 | Clc1cc2cccc(Cl)c2cc1Cl |  |  |  |  |  |  |  | 7.5
40 | CC(C)(C)c1ccc(C(C)(C)C)cc1 | 238 | 79.5 |  |  |  |  |  | 
41 | CC(C(O)c1ccccc1)N(C)C/C=C/c1ccccc1 (stereo not given) |  | 75 |  |  |  |  |  | 
42 | Cc1ccc(S(=O)(=O)O)c(C)c1 |  | 57 |  |  | readily biodegradable |  |  | 

Row | SMILES | boiling point [°C] | melting point [°C] | log10 Henry constant (atm·m³/mol) | log10 vapour pressure (mmHg) | ready biodegradability | log10 Koc (L/kg) | log10 biodegradation half-life (days) | log10 Koa
43 | CC(C)(C)c1ccccc1 | 169 | -57.8 |  | 0.343 | readily biodegradable |  |  | 
44 | CCOC(CC)(OCC)OCC | 171 |  |  |  |  |  |  | 
45 | CC(=O)Nc1ccccc1 | 304 | 114 |  | -3.7 | readily biodegradable | 1.43 |  | 
46 | Oc1ccc2c(c1)[nH]c1ccccc12 |  | 272 |  |  |  |  |  | 
47 | CC(C)(C)CC(C)(C)c1ccc(O)c(Cc2ccc(Cl)cc2Cl)c1 |  | 78 |  |  |  |  |  | 
48 | CC(=O)CC(C)(C)N | 180 |  |  | -0.699 |  |  |  | 
49 | O=[N+]([O-])c1cccc(S(=O)(=O)O)c1 |  |  |  |  | not readily biodegradable |  |  | 
50 | CCOC(=O)C1CCC1 | 159 |  |  |  |  |  |  | 
51 | O=[N+]([O-])c1ccc(O)c(O)c1 |  | 175 |  |  |  |  |  | 
52 | CC=CC=C(C)C | 112 | -74.2 |  |  |  |  |  | 
53 | CCC(CC)OC(C)=O | 133 |  |  |  |  |  |  | 
54 | c1cnc2[nH]ccc2c1 |  | 106 |  |  |  |  |  | 
55 | C=CCCCCCCCCCCC | 233 | -13 |  | -1.2 |  |  |  | 
56 | CC(C)(C#N)O[C@@H]1O[C@H](CO)[C@@H](O)[C@H](O)[C@H]1O |  | 145 |  |  |  |  |  | 
57 | COc1ccc([N+](=O)[O-])cc1 | 274 | 54 |  |  | not readily biodegradable |  |  | 
58 | CCCCC1(CC)C(=O)NC(=O)NC1=O |  | 128 |  |  |  |  |  | 
59 | CCCCCCCCCCCCCCCCCCCCCCCCCCCCCCCCCCCCC | 505 |  |  |  | readily biodegradable |  |  | 
60 | ClC1=CCCCC1 | 142 |  |  |  |  |  |  | 
61 | COC1(C)CC(c2ccccc2)c2c(c3ccccc3oc2=O)O1 (stereo not given) |  | 166 |  |  |  |  |  | 
62 | C1COCCO1 | 102 | 11.8 | -5.32 | 1.58 | not readily biodegradable | 1.23 |  | 3.18
63 | O=C(O)Cc1cccc([N+](=O)[O-])c1 |  | 118 |  |  |  |  |  | 

Row | SMILES | boiling point [°C] | melting point [°C] | log10 Henry constant (atm·m³/mol) | log10 vapour pressure (mmHg) | ready biodegradability | log10 Koc (L/kg) | log10 biodegradation half-life (days) | log10 Koa
64 | Cn1cc[nH]c1=S | 280 | 146 |  |  |  |  |  | 
65 | CCCc1cc(=O)[nH]c(=S)[nH]1 |  | 219 |  |  | not readily biodegradable |  |  | 
66 | O=[N+]([O-])c1ccc(CCO)cc1 |  | 63 |  |  |  |  |  | 
67 | O=C(O)/C=C/c1c[nH]cn1 |  | 225 |  |  |  |  |  | 
68 | Clc1sc(Cl)c(Cl)c1Cl | 233 | 30.5 |  |  |  |  |  | 
69 | FC(F)(F)C(F)(F)C(F)(F)C(F)(F)C(F)(F)C(F)(F)C(F)(F)C(F)(F)C(F)(F)Br | 159 |  |  |  |  |  |  | 
70 | C=CC(=O)OCCOC |  |  |  |  | readily biodegradable |  |  | 
71 | CCCCCCC(C)O (stereo not given) |  |  | -3.91 | -0.616 | readily biodegradable |  |  | 
72 | CCCCC |  | -130 | 0.0969 | 2.71 | readily biodegradable |  | 0.699 | 1.96
73 | CCCCCCOC(=O)CCCCC(=O)OCCCCCC |  |  |  | -5.54 |  |  |  | 
74 | Cc1ccno1 | 122 |  |  |  |  |  |  | 
75 | CCC(Br)CC | 119 | -126 |  |  |  |  |  | 
76 | CCC(=O)OC(C)(C)C | 118 |  |  |  |  |  |  | 
77 | O=Cc1ccc(Br)o1 | 201 |  |  |  |  |  |  | 
78 | CC(CN(C)C)CN1c2ccccc2Sc2ccccc21 (stereo not given) |  | 68 |  |  |  |  |  | 
79 | CC(C)(c1cc(Br)c(OCCO)c(Br)c1)c1cc(Br)c(OCCO)c(Br)c1 |  | 107 |  |  | not readily biodegradable |  |  | 
80 | Clc1ccc(C(Cl)(Cl)Cl)cc1Cl | 283 | 25.8 |  |  |  |  |  | 
81 | CC12CC1(C)C(=O)N(c1cc(Cl)cc(Cl)c1)C2=O (stereo not given) |  | 166 |  |  |  | 3.18 |  | 
82 | Nc1ccccc1Oc1ccccc1 | 308 | 45.8 |  |  |  |  |  | 
83 | C=CCOC(=O)CCC | 142 | -80 |  |  |  |  |  | 
84 | O=c1c(O)c(-c2ccc(O)cc2)oc2cc(O)cc(O)c12 |  | 277 |  |  |  |  |  | 

Same assay, conditions: fish

Row | SMILES | log10 BCF | log10 biotransformation half-life (days)
85 | COP(=O)(OC)OC=C(Cl)Cl | -0.3 | 
86 | C=CCCCCCCCCCCC |  | 0.73
87 | COc1ccc([N+](=O)[O-])cc1 | 1.08 | -0.95
88 | C1COCCO1 | -0.3 | 
